The text below walks through data of US20230250109A1, “MACROCYCLIC ETHER CONTAINING INDOLE DERIVATIVES AS INHIBITORS OF MCL-1” (Janssen Pharmaceutica NV, priority 2020, published 2023).

Each structure is given as a SMILES string. Like-named read-outs stand apart in the source and are kept apart here.

Data set [1] has as its system MOLP-8 human multiple myeloma cell line. Description: Caspase-Glo 3/7 apoptosis induction assay in MOLP-8 cells. The format is cell-based. As to conditions: 2 hours at 37° C., caspase-3/7 luminescence, averaged over all runs on all batches, read-out: MOLP8 Caspase-Glo AC50. An excerpt:
MCL-1 is a regulator of apoptosis and is highly over-expressed in tumor cells that escape cell death. The assay evaluates the cellular potency of small-molecule compounds targeting regulators of the apoptosis pathway, primarily MCL-1, Bfl-1, Bcl-2, and other proteins of the Bcl-2 family. Protein-protein inhibitors disrupting the interaction of anti-apoptotic regulators with BH3-domain proteins initiate apoptosis.
The Caspase-Glo® 3/7 Assay is a luminescent assay that measures caspase-3 and -7 activities in purified enzyme preparations or cultures of adherent or suspension cells. The assay provides a proluminescent caspase-3/7 substrate, which contains the tetrapeptide sequence DEVD. This substrate is cleaved to release aminoluciferin, a substrate of luciferase used in the production of light. Addition of the single Caspase-Glo® 3/7 Reagent in an “add-mix-measure” format results in cell lysis, followed by caspase cleavage of the substrate and generation of a “glow-type” luminescent signal. This assay uses the MOLP-8 human multiple myeloma cell line, which is sensitive to MCL-1 inhibition.
• Perkin Elmer Envision • Multidrop 384 and small volume dispensing cassettes • Centrifuge • Countess automated cell counter • Countess counting chamber slides • Assay plate: ProxiPlate-384 Plus, White 384-shallow well Microplate • Sealing tape: Topseal A plus • T175 culture flask
Cell cultures were maintained between 0.2 and 2.0×10^6 cells/mL. The cells were harvested by collection in 50 mL conical tubes. The cells were then pelleted at 500 g for 5 mins before removing supernatant and resuspension in fresh pre-warmed culture medium. The cells were counted and diluted as needed.
The assay reagent was prepared by transferring the buffer solution to the substrate vial and mixing. The solution may be stored for up to 1 week at 4° C. with negligible loss of signal.
Compounds were delivered in assay-ready plates (Proxiplate) and stored at −20° C. Assays always include 1 reference compound plate containing reference compounds. The plates were spotted with 40 nL of compounds (0.5% DMSO final in cells; serial dilution; […] highest conc. 1/3 dilution, 10 doses, duplicates). The compounds were used at room temperature and 4 μL of pre-warmed media was added to all wells except column 2 and 23. The negative control was prepared by adding 1% DMSO in media. The positive control was prepared by adding the appropriate positive control compound in final concentration of […] in media. The plate was prepared by adding 4 μL negative control to column 23, 4 μL positive control to column 2 and 4 μL cell suspension to all wells in the plate. The plate with cells was then incubated at 37° C. for 2 hours. The assay signal reagent is the Caspase-Glo solution described above, and 8 μL was added to all wells. The plates were then sealed and measured after 30 minutes.
The activity of a test compound was calculated as percent change in apoptosis induction as follows: […]

In data set [2] the target is Myeloid Cell Leukemia 1 (Mcl-1) (Homo sapiens, UniProt Q07820). The data set can be described thus: Terbium labeled Mcl-1 HTRF binding assay (displacement of Cy5-labeled BIM BH3 peptide). The following applies: 25 pM Tb-Mcl-1, 8 nM Cy5 Bim peptide, Ki=IC50/(1+[L]/Kd), [L]=8 nM, Kd=10 nM, 60 min at room temperature, read-out: Tb-MCL1 Ki. The protocol:
Terbium labeled Myeloid Cell Leukemia 1 (Mcl-1) homogeneous time-resolved fluorescence (HTRF) binding assay utilizing the BIM BH3 peptide (H2N—(C/Cy5Mal) WIAQELRRIGDEFN-OH) as the binding partner for Mcl-1.
This assay evaluated inhibition of the BH3 domain: Mcl-1 interaction by measuring the displacement of Cy5-labeled BIM BH3 peptide (H2N—(C/Cy5Mal) WIAQELRRIGDEFN-OH) in the HTRF assay format.
The following assay and stock buffers were prepared for use in the assay: (a) Stock buffer: 10 mM Tris-HCl, pH=7.5+150 mM NaCl, filtered, sterilized, and stored at 4° C.; and (b) 1× assay buffer, where the following ingredients were added fresh to stock buffer: 2 mM dithiothreitol (DTT), 0.0025% Tween-20, 0.1 mg/mL bovine serum albumin (BSA). The 1×Tb-Mcl-1+Cy5 Bim peptide solution was prepared by diluting the protein stock solution using the 1×assay buffer (b) to 25 pM Tb-Mcl-1 and 8 nM Cy5 Bim peptide.
Using the Acoustic ECHO, 100 nL of 100×test compound(s) were dispensed into individual wells of a white 384-well Perkin Elmer Proxiplate, for a final compound concentration of 1×and final DMSO concentration of 1%. Inhibitor control and neutral control (NC, 100 nL of 100% DMSO) were stamped into columns 23 and 24 of assay plate, respectively. Into each well of the plate was then dispensed 10 μL of the 1× Tb-Mcl-1+Cy5 Bim peptide solution. The plate was centrifuged with a cover plate at 1000 rpm for 1 minute, then incubated for 60 minutes at room temperature with plates covered. The TR-FRET signal was read on an BMG PHERAStar FSX MicroPlate Reader at room temperature using the HTRF optic module (HTRF: excitation: 337 nm, light source: laser, emission A: 665 nm, emission B: 620 nm, integration start: 60 μs, integration time: 400 μs).
The BMG PHERAStar FSX MicroPlate Reader was used to measure fluorescence intensity at two emission wavelengths—665 nm and 620 nm—and report relative fluorescence units (RFU) for both emissions, as well as a ratio of the emissions (665 nm/620 nm)*10,000. The RFU values were normalized to percent inhibition as follows:
35% inhibition=(((NC−IC)−(compound−IC))/(NC−IC))*100
where IC (inhibitor control, low signal)=mean signal of 1× Tb-MCl-1+Cy5 Bim peptide+ inhibitor control or 100% inhibition of Mcl-1; NC (neutral control, high signal)=mean signal 1× Tb-MCl-1+Cy5 Bim peptide with DMSO only or 0% inhibition An 11-point dose response curve was generated to determine IC50 values (using GenData) based on the following equation:
Y=Bottom+(Top−Bottom)/(1+10^((log IC50−X)*HillSlope))
where Y=% inhibition in the presence of X inhibitor concentration; Top=100% inhibition derived from the IC (mean signal of Mcl-1+ inhibitor control); Bottom=0% inhibition derived from the NC (mean signal of Mcl-1+ DMSO); Hillslope=Hill coefficient; and IC50=concentration of compound with 50% inhibition in relation to top/neutral control (NC).

As usually defined, the AC50 is the midpoint of the concentration-response curve, whichever way the signal moves. One may read the Ki as a dissociation constant, usually derived from enzyme kinetics or from competition with a known ligand. In general, melting point refers to the temperature of the solid-liquid transition.

Sequence of Myeloid Cell Leukemia 1 (Mcl-1) (Q07820 whole entry): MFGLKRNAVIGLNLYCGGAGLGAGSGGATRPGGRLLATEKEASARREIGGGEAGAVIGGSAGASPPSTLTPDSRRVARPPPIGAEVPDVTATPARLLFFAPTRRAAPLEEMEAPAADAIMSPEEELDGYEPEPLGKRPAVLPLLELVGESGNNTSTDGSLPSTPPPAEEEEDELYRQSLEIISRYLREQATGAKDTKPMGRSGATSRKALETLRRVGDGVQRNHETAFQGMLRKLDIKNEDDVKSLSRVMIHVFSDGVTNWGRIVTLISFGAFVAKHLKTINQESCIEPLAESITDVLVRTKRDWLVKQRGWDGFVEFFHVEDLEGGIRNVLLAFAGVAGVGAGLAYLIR

`Cc1c2c(nn1C)C(C)OCc1cc(n(C)n1)CSc1cc(c3ccccc3c1)OCCCc1c(C(=O)O)n(C)c3c-2c(Cl)ccc13` (single isomer, unassigned) [Compound 10]: in data set [1], the half-maximal activity concentration (AC50) was 14700 nM. Also, the inhibition constant Ki in data set [2] turned out to be 19.8 nM.

In the case of `CCc1c2c(nn1C)COCc1cc(n(C)n1)CSc1cc(c3ccccc3c1)OCCCc1c(C(=O)O)n(C)c3c-2c(Cl)ccc13` (single isomer, unassigned) [Compound 8], the melting point was found to be 264.21 °C. For the same compound, the half-maximal activity concentration (AC50) in data set [1] came to 5380 nM. In addition, in data set [2], the Ki was 8.12 nM.

In the case of `Cc1c2c(nn1C)COCc1cc(n(C)n1)CCc1cc(c3ccccc3c1)OCCCc1c(C(=O)O)n(C)c3c-2c(Cl)ccc13` (single isomer, unassigned) [Compound 2], the AC50 in data set [1] stood at 954 nM. Also, in data set [2], the Ki was 0.444 nM.

With `COCCOCCn1nc(C)c2c1COCc1cc(n(C)n1)CCc1cc(c3ccc(F)cc3c1)OCCCc1c(C(=O)O)n(C)c3c-2c(Cl)ccc13` (single isomer, unassigned) [Compound 17], the AC50 in data set [1] worked out at 7.4 nM. In addition, the Ki in data set [2] came to 0.025 nM.

`Cc1c2c(nn1C)COCc1cc(n(C)n1)CCc1cc(c3ccccc3c1)OCCCc1c(C(=O)O)n(C)c3c-2c(Cl)ccc13` (single isomer, unassigned) [Compound 1]: the half-maximal activity concentration (AC50) in data set [1] was determined as 83.3 nM. Besides, the Ki in data set [2] stood at 0.047 nM.

For `Cc1c2c(nn1C)C(C)OCc1cc(n(C)n1)CSc1cc(c3ccccc3c1)OCCCc1c(C(=O)O)n(C)c3c-2c(Cl)ccc13` (single isomer, unassigned) [Compound 9], the half-maximal activity concentration (AC50) in data set [1] turned out to be 246 nM. Moreover, the Ki in data set [2] was 0.241 nM.

As for `Cc1c2c(nn1C)COCc1cc(n(C)n1)CSc1cc(c3ccccc3c1)OCCCc1c(C(=O)O)n(C)c3c-2c(Cl)ccc13` (single isomer, unassigned) [Compound 5], the AC50 in data set [1] stood at 83.7 nM. In addition, the Ki in data set [2] turned out to be 0.057 nM.

As to `CCc1c2c(nn1C)COCc1cc(n(C)n1)CSc1cc(c3ccccc3c1)OCCCc1c(C(=O)O)n(C)c3c-2c(Cl)ccc13` (single isomer, unassigned) [Compound 7], the melting point came out at 269.16 °C. In addition, the AC50 in data set [1] was determined as 83.7 nM. In data set [2], the inhibitory constant (Ki) worked out at 0.055 nM.

On to `COCCOCCn1nc2c(c1C)-c1c(Cl)ccc3c(c(C(=O)O)n(C)c13)CCCOc1cc(cc3cc(F)ccc13)CCc1cc(nn1C)COC2` (single isomer, unassigned) [Compound 20], for which the AC50 in data set [1] came to 3450 nM. The Ki in data set [2] turned out to be 4.14 nM.

Take `Cc1c2c(nn1C)C(C)OCc1cc(n(C)n1)CSc1cc(c3ccccc3c1)OCCCc1c(C(=O)O)n(C)c3c-2c(Cl)ccc13` (single isomer, unassigned) [Compound 11]: the concentration at half-maximal activity (AC50) in data set [1] came out at 18100 nM. Also, the Ki in data set [2] came out at 33.1 nM.

`Cc1c2c(nn1C)COCc1cc(n(C)n1)CSc1cc(c3ccccc3c1)OCCCc1c(C(=O)O)n(C)c3c-2c(Cl)ccc13` (single isomer, unassigned) [Compound 6]: the half-maximal activity concentration (AC50) in data set [1] was determined as 6640 nM. For the same compound, the inhibition constant Ki in data set [2] turned out to be 11.7 nM.

With `COCCOCCn1nc(C)c2c1COCc1cc(n(C)n1)CCc1cc(c3ccc(F)cc3c1)OCCCc1c(C(=O)O)n(C)c3c-2c(Cl)ccc13` (single isomer, unassigned) [Compound 19], in data set [1], the AC50 was 626 nM. Moreover, the inhibitory constant (Ki) in data set [2] turned out to be 1.34 nM.

With `Cc1c2c(nn1C)C(C)OCc1cc(n(C)n1)CSc1cc(c3ccccc3c1)OCCCc1c(C(=O)O)n(C)c3c-2c(Cl)ccc13` (single isomer, unassigned) [Compound 12], the AC50 in data set [1] turned out to be 59.4 nM. The inhibitory constant (Ki) in data set [2] came out at 0.036 nM.

Consider `Cc1c2c(nn1C)COCc1cc(n(CCN(C)C)n1)CSc1cc(c3ccccc3c1)OCCCc1c(C(=O)O)n(C)c3c-2c(Cl)ccc13` (single isomer, unassigned) [Compound 16], for which the concentration at half-maximal activity (AC50) in data set [1] (Homo sapiens, MOLP-8, 2 h) worked out at 185 nM. Further, in data set [2], the Ki is 0.072 nM.

With `Cc1c2c(nn1C)COCc1cc(n[nH]1)CSc1cc(c3ccccc3c1)OCCCc1c(C(=O)O)n(C)c3c-2c(Cl)ccc13` (single isomer, unassigned) [Compound 14], the half-maximal activity concentration (AC50) in data set [1] came to 18000 nM. In addition, the Ki in data set [2] was determined as 21.6 nM.

For `COCCOCCn1nc2c(c1C)-c1c(Cl)ccc3c(c(C(=O)O)n(C)c13)CCCOc1cc(cc3cc(F)ccc13)CCc1cc(nn1C)COC2` (single isomer, unassigned) [Compound 18], the concentration at half-maximal activity (AC50) in data set [1] is 17.6 nM. For the same compound, the inhibitory constant (Ki) in data set [2] turned out to be 0.02 nM.

Turning to `Cc1c2c(nn1C)COCc1cc(n[nH]1)CSc1cc(c3ccccc3c1)OCCCc1c(C(=O)O)n(C)c3c-2c(Cl)ccc13` (single isomer, unassigned) [Compound 13], the AC50 in data set [1] was found to be 411 nM. The Ki in data set [2] is 0.128 nM.

Regarding `Cc1c2c(nn1C)COCc1cc(nn1CCN(C)C)CSc1cc(c3ccccc3c1)OCCCc1c(C(=O)O)n(C)c3c-2c(Cl)ccc13` (single isomer, unassigned) [Compound 15], the half-maximal activity concentration (AC50) in data set [1] (Homo sapiens, MOLP-8, 2 h) was found to be 388 nM. Further, the inhibition constant (Ki) in data set [2] worked out at 0.111 nM.
